# Reference: patent publication US6800464B2, “Arthrobacter D-carbamoylase and methods of preparing enantiomerically enriched D-amino acids” (Degussa AG, priority 2001, dated 2004)
# Read-outs that look alike come from different tables or passages of the source.
# B1: D-carbamoylase from Arthrobacter crystallopoietes DSM 20117 (Crystallibacter crystallopoietes) (protein)
# chain: MAKNLMLAVAQVGGIDSSESRPEVVARLIALLEEAASQGAELVVFPELTLTTFFPRTWFEEGDFEEYFDKSMPNDDVAPLFERAKDLGVGFYLGYAELTSDEKRYNTSILVNKHGDIVGKYRKMHLPGHADNREGLPNQHLEKKYFREGDLGFGVFDFHGVQVGMCLCNDRRWPEVYRSLALQGAELVVLGYNTPDFVPGWQEEPHAKMFTHLLSLQAGAYQNSVFVAAAGKSGFEDGHHMIGGSAVAAPSGEILAKAAGEGDEVVVVKADIDMGKPYKESVFDFAAHRRPDAYGIIAERKGRGAPLPVPFNVND
# B2: D-carbamoylase: homogeneously purified recombinant D-carbamoylase from Arthrobacter crystallopoietes DSM 20117 (SEQ ID NO: 2) (protein)
# chain: MAKNLMLAVAQVGGIDSSESRPEVVARLIALLEEAASQGAELVVFPELTLTTFFPRTWFEEGDFEEYFDKSMPNDDVAPLFERAKDLGVGFYLGYAELTSDEKRYNTSILVNKHGDIVGKYRKMHLPGHADNREGLPNQHLEKKYFREGDLGFGVFDFHGVQVGMCLCNDRRWPEVYRSLALQGAELVVLGYNTPDFVPGWQEEPHAKMFTHLLSLQAGAYQNSVFVAAAGKSGFEDGHHMIGGSAVAAPSGEILAKAAGEGDEVVVVKADIDMGKPYKESVFDFAAHRRPDAYGIIAERKGRGAPLPVPFNVND
# modifications: OTHER INFORMATION: … DNA
# Legend:
# [1] = molecular target: D-carbamoylase from Arthrobacter crystallopoietes DSM 20117 (Crystallibacter crystallopoietes, UniProt A0A1H1C375); experiment: Substrate specificity of the purified D-carbamoylase (relative conversion of carbamoyl substrates); type: biochemical; details: for Rel. act. / conversion of substrate (in words): 30° C.; for Rel. act.: 0.1 M potassium phosphate buffer pH 8.0, 20 mM isomer mixture or 10 mM pure isomer, D,L-Carbamoyl-phenylalanine set at 100% (2 U/mg); for conversion of substrate (in words): assay conditions of substrate spectrum, pH 8.0
# Description: (§1) The homogeneously purified D-carbamoylase with the His-tag and ttg start codon (pMW1 —FIG. 5) was used for characterization of the enzyme obtained in this way. The enzyme was present in 0.1 M KPB pH 8.0.
# To determine the substrate spectrum, the enzyme was incubated at a reaction temperature of 30° C. with the particular substrate in the presence of 0.1 M potassium phosphate buffer pH 8.0. To ensure the same concentration of the D-isomer, if the substrate was present as an isomer mixture a concentration of 20 mM was established; if the substrate was present as a pure isomer a concentration of 10 mM was established.
# [2] = system: purified D-carbamoylase; experiment: Cofactor dependence: inactivation by complexing agents and sulfhydryl reagents, reactivation by metal ions; type: biochemical, Arthrobacter crystallopoietes DSM 20117; details: for inactivation of the enzyme by complexing agent: 10 mM, incubation at 25° C., 8-HQSA: within less than two hours
# Description: as §1
# In order to be able to differentiate the inactivation by the complexing agent from the thermal inactivation, an aliquot of the enzyme solution was co-incubated without 8-HQSA and the activity was monitored with respect to time. It was concluded that to reactivate the enzyme, the 8-HQSA had to be removed from the enzyme by gel filtration, and incubation had to be carried out in the presence of 2 mM metal ions. However, neither Cu^2+, Co^2+, Mn^2+, Mg^2+, Fe^2+ nor Zn^2+ led to a reactivation of the enzyme.
# [3] = substrate: NC(=O)N[C@H](Cc1c[nH]c2ccccc12)C(=O)O; experiment: Determination of kinetic parameters (Km, vmax) of the D-carbamoylase; type: biochemical, Arthrobacter crystallopoietes DSM 20117; details: other: Michaelis-Menten kinetics, Enzymfit program; pH 8.0
# Description: as §1
# For determination of Vmax and Km, the rate of reaction v was plotted as a function of the substrate concentration. The calculation of the kinetic parameters was carried out via the Enzymfit program (developed at the Institute of Bioprocess Technology, University of Stuttgart). […] The reaction can be described here by Michaelis-Menten kinetics (see equation 1). [formula]
# [4] = Determination of the optimum pH of the purified D-carbamoylase; type: biochemical; details: pH range 6.5 to 9.0, DL-C-phenylalanine, 30° C., 100 mM buffers
# Description: To determine the optimum pH of the purified D-carbamoylase, conversions were carried out at various pH values in a range from 6.5 to 9.0 with DL-C-phenylalanine as the substrate at 30° C. In order to be able to rule out concentration effects, the buffer concentration of all the buffers used (Tris, potassium phosphate and Tris-glycine) was adjusted to a value of 100 mM. The activity maximum of the D-carbamoylase was at pH 8.
molecule,measurement,setting,value
"CSCCC(NC(N)=O)C(=O)O (racemic) [D,L-Carbamoyl-methionine]",Rel. act.,[1],13%
"NC(=O)NC(CO)C(=O)O (racemic) [D,L-Carbamoyl-serine]",Rel. act.,[1],35%
"CC(C)(C)C(NC(N)=O)C(=O)O (racemic) [D,L-Carbamoyl-tert-leucine]",Rel. act.,[1],18%
"CC(C)C(NC(N)=O)C(=O)O (racemic) [D,L-Carbamoyl-valine]",Rel. act.,[1],31%
O=C(O)c1ccccc1[N+](=O)[O-] [2-nitrobenzoate],inactivation of the D-carbamoylase by sulfhydryl reagents,[2]; 1 mM,complete inactivation
O=S(=O)(O)c1ccc(O)c2ncccc12 [8-hydroxyquinolinesulfonic acid],inactivation of the enzyme by complexing agent,[2],compete inhibition
C[C@@H](NC(N)=O)C(=O)O [D-Carbamoyl-alanine],Rel. act.,[1],510%
same,conversion relative to all other substrates,[1]; compared with all other substrates of table 5,at least five times better
NC(=O)N[C@H](Cc1c[nH]c2ccccc12)C(=O)O [D-Carbamoyl-tryptophan],Rel. act.,[1],80%
O=C(O)CN(CCN(CC(=O)O)CC(=O)O)CC(=O)O [EDTA],inactivation of the enzyme by complexing agent,[2],no inactivation
NC(=O)N[C@@H](Cc1c[nH]c2ccccc12)C(=O)O [L-carbamoyl-tryptophan],conversion of substrate (in words),[1],not converted
CC(C)[C@H](NC(N)=O)C(=O)O [L-carbamoyl-valine],conversion of substrate (in words),[1],not converted
O=C(O)CI [iodine acetate],inactivation of the D-carbamoylase by sulfhydryl reagents,[2],complete inactivation
O=C(O)c1cc[c]([Hg][Cl])cc1 [para-chloro-mercury benzoate],inactivation of the D-carbamoylase by sulfhydryl reagents,[2]; 1 mM,complete inactivation
β-Ureido-propionate,Rel. act.,[1],0%
same,conversion of substrate (in words),[1],not converted
B1,Km,[3],7.5 mM
same,Vmax,[3],2.4 U/mg
B2,activity maximum (optimum pH),[4],8
